Measurements reported in US8921365B2, “Pharmaceutical composition, substrate comprising a pharmaceutical composition, and use of a pharmaceutical composition” (priority 2007, dated 2014).
Where two headings read alike, the source gives them in different places.

Columns and labels:
S. aureus BAA44 [1] = experiment: Adhesion of bacteria on coated titanium discs, CFU per disc; format: cell-based, Staphylococcus aureus; conditions: 1.5 h, 200 μg/cm^2 vancomycin or 50 μg/cm^2 rifampin + 200 μg/cm^2 fosfomycin calcium, FIG. 5c
Procedure: The experimental set up was essentially the same as described above for S. aureus ATTC 6538P.
The coated titanium discs were washed either once or twice with 5 ml PBS before incubation with S. aureus BAA44 for 1.5 h.

S. aureus BAA44 [2] = experiment: Bactericidal activity of coated titanium discs in Minimal Medium, CFU in supernatant and on discs; format: cell-based, Staphylococcus aureus; conditions: 15.5 h in Minimal Medium, discs washed three times
Procedure: The bacterial density was determined photometrically.
The Minimal Medium was used instead of Caso Bouillon to minimize the bacterial growth.
Afterwards the CFU in the supernatant as well as the adhered bacteria on the titanium discs were analysed. The supernatant was diluted 1:10 in PBS, 100 μl of the dilution were streaked out on Caso agar plates.

S. aureus BAA44 [3] = experiment: Acute infection of osteoblastic MG63 cells without lysostaphin, CFU per well of intracellular and adhered bacteria; format: cell-based, Staphylococcus aureus; conditions: for effect on CFU per well of intracellular and adhered S. aureus BAA44: 18 h, FIG. 6
Procedure: (§1) Osteoblastic MG63 cells were detached with the cell detachment medium Accutase 24 hours before infection. The cell number was determined using the Neubauer counting chamber. Cells were seeded onto uncoated 24 well plates with a cell density of 1.5×10^4 cells/cm^2 in 1 ml DMEM (Dulbecco's Modified Eagle's Medium) with 10% FCS (fetal calf serum), 1% Glutamax-I and 1% Natrium Pyruvat and incubated at 37° C. and 5% CO2.
The cell culture supernatant of the osteoblastic MG63 cells was removed with a pipette from the wells. 1 ml containing 1×10^6 S. aureus BAA44 CFU was added to each well containing also antibiotics having the following compositions: • 50 μg/ml vancomycin • 2.5 μg/ml rifampin • 1.25-10 μg/ml daptomycin • and their mixtures in different ratios as given below.
The combined osteoblastic cells, bacteria, and antibiotic compositions were incubated for 18 h at 37° C. under 5% CO2 atmosphere.
Afterwards the cells were washed once with PBS pH 7.4 (phosphate buffer solution) followed by lysis with 1 ml 0.1% Triton X100 in ringer's solution. The lysates were thoroughly resuspended with a pipette. Only one 24 well plate was handled and the other plates were stored at 4° C. in order to minimize bacterial growth in the lysate.
(§2) The lower the CFU value is the lower is the infection rate of the osteoblastic cells with S. aureus BAA44. This correlates to the efficacy of the added antibiotic.

S. aureus ATTC 6538P [4] = conditions: 200 μg/cm^2 vancomycin, FIG. 5a
Procedure: An overnight culture of S. aureus ATTC 6538P was prepared by infecting 5 ml Caso-Bouillon medium with S. aureus ATTC 6538P. The cultures were incubated with shaking (450 U/min) over night at 37° C. 100 μl of the overnight cultures were transferred into 5 ml Caso Boulillon medium and incubated for 2 h at 37° C. with shaking (450 U/min). The bacterial density was determined photometrically. The bacterial suspension was diluted 1:2 in Caso Bouillon prior measurement. A bacterial suspension with a density of 1×10^5 CFU/ml in Caso Boullion with 10% FCS was used for the adhesion experiments.
After coating the titanium discs were washed either one time or three times with PBS. The coated and uncoated titanium discs were incubated for 5 min at room temperature with 5 ml PBS. This was repeated two more times. In the third circle the titanium discs were incubated for 1 h at room temperature. Before removing the PBS solution the titanium discs were turned or swiveled in order to increase the detachment of the antibiotics. Afterwards the titanium discs were transferred into sterile 12 well plates. […]
Afterwards the bacterial suspension was removed and the discs were washed three times with 2.5 ml PBS. […] The agar plates were incubated over night at 37° C. and the next day the colonies were counted.

[5] = tested on: S. aureus ATTC 6538P in osteoblastic MG63 cells; experiment: Intracellular infection of osteoblastic MG63 cells after lysostaphin, metabolic activity (MTT, absorbance 540 nm); conditions: 24 h
S. aureus ATTC 6538P [6] = experiment: Extracellular infection of osteoblastic MG63 cells, CFU in cell culture supernatant; format: cell-based, Staphylococcus aureus; conditions: 24 h; 100 μg/ml gentamicin, 1 μg/ml rifampin, 100 μg/ml fosfomycin disodium, alone or combined with rifampin; FIG. 1
Procedure: as §1
The cell culture supernatant of the osteoblastic MG63 cells was removed with a pipette from the wells. 1 ml containing 1×10^6 S. aureus ATTC 6538P cells was added to each well. Two 24 well plates were incubated with S. aureus ATTC 6538P. The combined osteoblastic cells and bacteria were incubated for 1.5 h at 37° C. under 5% CO2 atmosphere. The presence of bacteria was determined using a microscope.
After 1.5 h the supernatant was removed and the wells were carefully washed twice with 37° C. warm DMEM without additives. It was microscopically checked, if not too many cells were detached during the washing procedure.
After incubation for 24 h, 100 μl of the cell culture supernatant was streaked out on Caso agar plates (Casein-peptone soymeal-peptone broth) directly, e.g. in case of rifampin, fosfomycin, rifampin/fosfomycin and rifmpicin/gentamicin, or after appropriate dilution, e.g. 1:100 in case of gentamicin, and incubated overnight at 37° C. […]

S. aureus BAA44 [7] = experiment: as above; format: cell-based, Staphylococcus aureus; conditions: 24 h; 100 μg/ml vancomycin, 10 μg/ml rifampin, 100 μg/ml fosfomycin, alone or combined with rifampin; rifampin resistant MRSA strain; FIG. 2
Procedure: Following antibiotics were used: • 100 μg/ml vancomycin • 10 μg/ml rifampin • 100 μg/ml fosfomycin • 10 μg/ml rifampin+100 μg/ml fosfomycin • 10 μg/ml rifampin+100 μg/ml vancomycin.
After incubation for 24 h 100 μl of the cell culture were streaked out on Caso agar plates (Casein-peptone soymeal-peptone broth) directly, e.g. in case of vancomycin, rifampin/fosfomycin and rifampin/vancomycin, or after appropriate dilution, e.g. 1:100 in case of rifampin and fosfomycin, and incubated overnight at 37° C. The supernatant of two wells per group was streaked out.

[8] = tested on: S. aureus BAA44 in osteoblastic MG63 cells; experiment: Intracellular infection of osteoblastic MG63 cells after lysostaphin, cell lysis and intracellular CFU count; format: cell-based, Staphylococcus aureus; conditions: 24 h; fosfomycin 50-400 μg/ml, rifampin 2.5-40 μg/ml, mixtures in varying ratios; FIG. 4a-g
Procedure: Only one 24 well plate was handled and the other plates were stored at 4° C. in order to minimize bacterial growth in the lysate.
as §2

[9] = in vivo; cited from earlier work
S. aureus = conditions: drug concentration-dependent; cited from earlier work
[10] = 2.5 μg/ml rifampin, 50 μg/ml vancomycin
[11] = 100 μg/ml vancomycin, 100 μg/ml gentamicin, 0.01-100 μg/ml rifampin, 1 μg/ml rifampin + 100 μg/ml fosfomycin or gentamicin, FIG. 3a-d

CN[C@H](CC(C)C)C(=O)N[C@H]1C(=O)N[C@@H](CC(N)=O)C(=O)N[C@H]2C(=O)N[C@H]3C(=O)N[C@H](C(=O)N[C@H](C(=O)O)c4cc(O)cc(O)c4-c4cc3ccc4O)[C@H](O)c3ccc(c(Cl)c3)Oc3cc2cc(c3O[C@@H]2O[C@H](CO)[C@@H](O)[C@H](O)[C@H]2O[C@H]2C[C@](C)(N)[C@H](O)[C@H](C)O2)Oc2ccc(cc2Cl)[C@H]1O [vancomycin]
anti-adhesive effect, CFU per titanium disc (S. aureus BAA44 [1]; discs washed once): reduced the adhesion
anti-adhesive effect, CFU per titanium disc (S. aureus BAA44 [1]; discs washed twice): no reduction of bacterial adhesion
bactericidal effect of the coating (S. aureus BAA44 [2]): could not exhibit any bactericidal effect
CFU in the supernatant (S. aureus BAA44 [2]; 200 μg/cm^2 vancomycin or 300 μg/cm^2 fosfomycin calcium + 70 μg/cm^2 rifampin, FIG. 5d): reduced the bacterial growth in the cell culture supernatant compared to the uncoated control slightly
CFU adhered to the titanium disc (S. aureus BAA44 [2]; FIG. 5d): more than 50,000 CFU
effect on CFU per well of intracellular and adhered S. aureus BAA44 (S. aureus BAA44 [3]; [10]): several hundred
anti-adhesive effect, CFU per titanium disc (S. aureus ATTC 6538P [4]; discs washed one time before 1.5 h incubation): anti-adhesive effect after one washing step
anti-adhesive effect, CFU per titanium disc (S. aureus ATTC 6538P [4]; discs washed three times before 1.5 h incubation): did not reveal any anti-adhesive effect
metabolic activity of infected osteoblastic MG63 cells [5, 11]: strongly reduced

C[C@@H]1O[C@@H]1P(=O)(O)O [fosfomycin]
effect on CFU of S. aureus ATTC 6538P in cell culture supernatant (S. aureus ATTC 6538P [6]): moderate
effect on CFU of S. aureus BAA44 in cell culture supernatant (S. aureus BAA44 [7]): relatively small
effect on CFU per well of intracellular located S. aureus BAA44 [8]: good efficacy
concentrations allowing for intravenous application [9]: 100 to 400 µg/mL
concentrations allowing for intravenous application, preferred, in serum [9]: 132 to 297 µg/mL
metabolic activity of infected osteoblastic MG63 cells ([5]; 10 μg/ml fosfomycin, FIG. 3b): increases the metabolic activity only slightly
metabolic activity of infected osteoblastic MG63 cells ([5]; 100 μg/ml fosfomycin, FIG. 3b): almost doubled

CO[C@H]1/C=C/O[C@@]2(C)Oc3c(C)c(O)c4c(O)c(c(/C=N/N5CCN(C)CC5)c(O)c4c3C2=O)NC(=O)/C(C)=C\C=C\[C@H](C)[C@H](O)[C@@H](C)[C@@H](O)[C@@H](C)[C@H](OC(C)=O)[C@@H]1C [rifampin]
effect on CFU of S. aureus ATTC 6538P in cell culture supernatant (S. aureus ATTC 6538P [6]): moderate
effect on CFU of S. aureus BAA44 in cell culture supernatant (S. aureus BAA44 [7]): hardly any efficacy
effect on CFU per well of intracellular located S. aureus BAA44 [8]: good intracellular potency
overgrowth of the MG63 cells with planktonic S. aureus BAA44 (S. aureus BAA44 [3]; 2.5 μg rifampin, data not shown): prevented efficacious
effect on CFU per well of intracellular and adhered S. aureus BAA44 (S. aureus BAA44 [3]; [10]): less than for vancomycin and daptomycin
metabolic activity of infected osteoblastic MG63 cells [5, 11]: reduce the cell death caused by S. aureus ATTC 6538P drastically
concentration sufficient in increasing the metabolic activity ([5]; FIG. 3a): 0.006 µg/mL

CCCCCCCCCC(=O)N[C@@H](Cc1c[nH]c2ccccc12)C(=O)N[C@H](CC(N)=O)C(=O)N[C@@H](CC(=O)O)C(=O)N[C@@H]1C(=O)NCC(=O)N[C@@H](CCCN)C(=O)N[C@@H](CC(=O)O)C(=O)N[C@H](C)C(=O)N[C@@H](CC(=O)O)C(=O)NCC(=O)N[C@H](CO)C(=O)N[C@@H]([C@H](C)CC(=O)O)C(=O)N[C@@H](CC(=O)c2ccccc2N)C(=O)O[C@@H]1C [daptomycin]
effect on CFU per well of intracellular and adhered S. aureus BAA44 (S. aureus BAA44 [3]; 1.25 μg/ml daptomycin): good efficacy
effect on CFU per well of intracellular and adhered S. aureus BAA44 (S. aureus BAA44 [3]; 2.5 μg/ml daptomycin): good efficacy
effect on CFU per well of intracellular and adhered S. aureus BAA44 (S. aureus BAA44 [3]; 5 μg/ml daptomycin): eradicate the infection completely
effect on CFU per well of intracellular and adhered S. aureus BAA44 (S. aureus BAA44 [3]; 10 μg/ml daptomycin): eradicate the infection completely

O=C(O)c1ccccc1O [salicylic acid]
maximum reduction of S. aureus virulence parameters (S. aureus): approximately 50%
